PubChem BioAssay AID179 (DTP/NCI, 2004)
Activity calls are given as the source filed them.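 The calls were made as follows: active = compounds giving half or more protection of infected cells from virus-caused growth loss, again on retest; inactive = the rest.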 Where a SMILES comes first, the peptide text is derived from it. Bridges are numbered along the chain shown (N, C = ends). [ ]: non-standard residue; d: D form. Orn = NCCC[CH](N)C(=O)O

Tested on: CEM cells HIV-1 protection, formazan growth assay
Experiment: NCI AIDS Antiviral Assay
Details: for IC50: measured here: growth of uninfected CEM cells
Procedure, shortened: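 CEM (human) cells, HIV-1 infected vs uninfected, 5-point dosing, formazan growth read-out. Retest threshold 50% protection.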

Row | SMILES | EC50 | IC50 | outcome
1 | CNC(=O)C(C)NC(=O)C(Cc1ccccc1)NC(=O)OC(C)(C)C (configuration not stated) | > 200 µM | > 200 µM | –
2 | CC1=C(C(=O)Nc2cccc(Cl)c2)C(c2ccccc2F)C(C(=O)Nc2cccc(Cl)c2)=C(C)N1 | > 14.1 µM | > 14.1 µM | –
3 | NC(=O)C1CCCNC(=O)CC(NC(=O)C(N)Cc2ccc(O)cc2)C(=O)NC(Cc2ccccc2)C(=O)N1 (configuration not stated) (H-YDF[Orn]-NH2; lactam 2-4; configuration not given here) | > 100 µM | > 100 µM | –
4 | COc1ccc([N+](=O)[O-])cc1NC(=O)c1ccc2c(c1)C(=O)OC2=O | 29.5 µM | 64.6 µM | –
5 | CSc1c(C(N)=O)c2c(N)ncnc2n1C1OC(CO)C(O)C1O (configuration not stated) | > 2 µM | 1.02 µM | –
6 | NC(=O)C(=CNc1nc(-c2ccc(Br)cc2)cs1)C(N)=O | > 200 µM | 135 µM | –
7 | C=CCSSSCC=C | > 120 µM | 63.1 µM | –
8 | NS(=O)(=O)c1ccc(NC(=O)COC(=O)c2cccc3c(=O)c4ccccc4[nH]c23)cc1 | – | – | inactive
9 | CCNc1cc2c(cc1O)CC[C@@H]1[C@@H]2CC[C@]2(C)[C@@H](O)CC[C@@H]12 | > 200 µM | 3.89 µM | –
10 | O=C1CCCCC/C1=C\c1ccc(Cl)cc1 | > 200 µM | 27.5 µM | –
11 | O=C1C=CC(=C(c2ccc(O)cc2)c2ccc(O)cc2)C=C1 | – | – | inactive
12 | Cc1[nH]c(=O)nc2c1C(NCCCN(C)C)c1cc(Cl)ccc1N2 (configuration not stated) | > 200 µM | 8.91 µM | –
13 | O=C1CN(/C=C(/c2ccc(Cl)cc2)S(=O)(=O)Cc2ccc(Cl)cc2)C(=S)N1 | > 200 µM | > 200 µM | –
14 | CCCCCCCCc1cc2c(O)c(c1)Cc1cc(CCCCCCCC)cc(c1O)Cc1cc(CCCCCCCC)cc(c1O)Cc1cc(CCCCCCCC)cc(c1O)Cc1cc(CCCCCCCC)cc(c1O)Cc1cc(CCCCCCCC)cc(c1O)C2 | – | – | inactive
15 | O=C(Nc1ccc(Sc2ccc(N=Nc3c(O)c(S(=O)(=O)O)cc4cc(S(=O)(=O)O)ccc34)cc2)cc1)c1ccc(N=Nc2ccc3c(S(=O)(=O)O)cccc3c2O)cc1 | – | – | inactive
16 | COc1cc2nncc(Sc3cnnc4ccccc34)c2cc1OC | > 61.7 µM | 7.59 µM | –
17 | CCOP(=O)(OCC)/C(C#N)=C/c1cccc(Cl)c1 | > 224 µM | 174 µM | –
18 | CC1=C2C(=C(CBr)OS1(=O)=O)C(=O)c1ccccc12 | > 741 µM | 38.9 µM | –
19 | CCOC(=O)c1c(-c2ccc(OC)cc2)c(C#N)c(=S)n(C2OC(COC(C)=O)C(OC(C)=O)C(OC(C)=O)C2OC(C)=O)c1-c1ccccc1 (configuration not stated) | > 200 µM | 25.7 µM | –
20 | O=S1CCCCS1 (configuration not stated) | > 912 µM | 17.4 µM | –
21 | NCCOCCOCC(=O)O | – | – | inactive

Row | SMILES | EC50 | IC50 | outcome
22 | O=C1C2c3[nH]c4ccccc4c3C3CCCCCC3C2C(=O)N1c1ccccc1 (configuration not stated) | – | – | inactive
23 | CC[P+]1(c2ccccc2)[C@@H](C)CC[C@@H]1C | > 200 µM | 91.2 µM | –
24 | COc1c(C)c2c(c(O)c1C/C=C(\C)CCC(=O)O)C(=O)OC2 | > 7.76 µM | 0.0355 µM | –
25 | CN1C(=O)C(C)(O)c2ccccc21 (configuration not stated) | > 1410 µM | 550 µM | –
26 | Cc1[nH]c(-c2ccccc2)c2nc(N(C)C)oc(=O)c12 | > 200 µM | > 200 µM | –
27 | O=C1c2cc(O)c(O)cc2O[C@H](c2ccc(O)c(O)c2)[C@H]1O | > 200 µM | 170 µM | –
28 | O=[N+]([O-])c1nccn1CCC[n+]1ccccc1 | > 200 µM | > 200 µM | –
29 | Cc1ccc(/C=C(\NC(=O)c2ccccc2)c2nc3ccccc3[nH]2)cc1 | > 74.1 µM | > 74.1 µM | –
30 | N#CC1(Cc2ccc(N)cc2)c2ccccc2C=CN1C(=O)c1ccccc1 (configuration not stated) | – | – | inactive
31 | O=C(Nc1ccccc1CCl)Nc1ccccc1CCl (tested in a mixture with another compound) | > 200 µM | 41.7 µM | –
32 | Cc1cc(=O)oc2cc3c(cc12)CCCN3 | > 33.9 µM | > 33.9 µM | –
33 | O=C(O)CCCc1ccc(N(CCCl)OCCCl)cc1 | > 200 µM | 21.9 µM | –
34 | C[C@@H](c1ccccc1)N1CN(C(=O)OCc2ccccc2)C(CO)C1=O (some centres not stated) | > 200 µM | 186 µM | –
35 | O=c1n(-c2ccccc2)c(=O)n2n1C1C=CC2CCCCCC1 | > 200 µM | > 200 µM | –
36 | C=CCOc1ccc(C2C(C(=O)OC)C(=O)CC(O)(c3ccccc3)C2C(=O)OC)cc1OC (configuration not stated) | > 100 µM | > 100 µM | –
37 | COc1cc2nc(CC(O)c3nc4cc(OC)c(OC)cc4[nH]3)[nH]c2cc1OC (configuration not stated) | > 200 µM | 17.4 µM | –
38 | COc1cccc(CCn2c(N)c(C#N)c3ccc([N+](=O)[O-])cc3c2=O)c1 | > 200 µM | 1.12 µM | –
39 | COc1ccc2[nH]c3c(c2c1)C(=O)c1ccncc1C3=O | > 20 µM | 1.2 µM | –
40 | COc1cc2cc[n+](C)c(Cc3ccccc3)c2cc1OC | > 200 µM | 166 µM | –
41 | N#C/C(=C\c1cc(Br)c(O)c(Br)c1)c1ccccn1 | > 200 µM | 31.6 µM | –
42 | CC1=NN(C(=O)c2ccccc2O)C(=O)/C1=C/c1ccc(O)cc1 | > 30.9 µM | 0.0589 µM | –
